The values below come from ChEMBL document CHEMBL1201862, “PubChem BioAssay data set” (2004).

In assay [1] the target is Large T antigen (Simian virus 40, UniProt P03070). The class given is functional, Betapolyomavirus macacae.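 Also: Confirmatory-stage PubChem screen for compounds that inhibit SV40 T antigen.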
The target of assay [2] is Induced myeloid leukemia cell differentiation protein Mcl-1 (Homo sapiens, UniProt Q07820). In kind it is functional.
The target in assay [3] is Eukaryotic translation initiation factor 4E (Mus musculus, UniProt P63073). Put plainly: blockers of eIF4G binding by eIF4E – biochemical, TR-FRET, dose response (AID 855).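 Also: potency for disrupting eIF4E binding to eIF4GI seen as loss of FRET.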 In kind it is functional. (TR-FRET usually uses a lanthanide donor and a delayed reading to cut background.)
Sequence of Eukaryotic translation initiation factor 4E (P63073 whole entry): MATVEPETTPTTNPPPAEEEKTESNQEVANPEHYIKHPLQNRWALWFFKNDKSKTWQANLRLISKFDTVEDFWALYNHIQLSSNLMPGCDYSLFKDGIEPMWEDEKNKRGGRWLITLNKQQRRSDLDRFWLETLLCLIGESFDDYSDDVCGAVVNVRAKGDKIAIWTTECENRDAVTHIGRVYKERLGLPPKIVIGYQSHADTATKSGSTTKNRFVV
Assay [4] has as its target Genome polyprotein (dengue virus type 2, UniProt P29990). Put plainly: flavivirus cap methylation enzyme inhibition – biochemical, confirmation dose response, primary screen (AID 588689). In kind it is functional.
In assay [5] the target is DNA (cytosine-5)-methyltransferase 1 (Homo sapiens, UniProt P26358). Kind of assay: inhibition of DNA methylation by DNMT1 – biochemical, fluorescent molecular beacon, confirmation (AID 602386). In kind it is functional.
Sequence of DNA (cytosine-5)-methyltransferase 1 (P26358 whole entry): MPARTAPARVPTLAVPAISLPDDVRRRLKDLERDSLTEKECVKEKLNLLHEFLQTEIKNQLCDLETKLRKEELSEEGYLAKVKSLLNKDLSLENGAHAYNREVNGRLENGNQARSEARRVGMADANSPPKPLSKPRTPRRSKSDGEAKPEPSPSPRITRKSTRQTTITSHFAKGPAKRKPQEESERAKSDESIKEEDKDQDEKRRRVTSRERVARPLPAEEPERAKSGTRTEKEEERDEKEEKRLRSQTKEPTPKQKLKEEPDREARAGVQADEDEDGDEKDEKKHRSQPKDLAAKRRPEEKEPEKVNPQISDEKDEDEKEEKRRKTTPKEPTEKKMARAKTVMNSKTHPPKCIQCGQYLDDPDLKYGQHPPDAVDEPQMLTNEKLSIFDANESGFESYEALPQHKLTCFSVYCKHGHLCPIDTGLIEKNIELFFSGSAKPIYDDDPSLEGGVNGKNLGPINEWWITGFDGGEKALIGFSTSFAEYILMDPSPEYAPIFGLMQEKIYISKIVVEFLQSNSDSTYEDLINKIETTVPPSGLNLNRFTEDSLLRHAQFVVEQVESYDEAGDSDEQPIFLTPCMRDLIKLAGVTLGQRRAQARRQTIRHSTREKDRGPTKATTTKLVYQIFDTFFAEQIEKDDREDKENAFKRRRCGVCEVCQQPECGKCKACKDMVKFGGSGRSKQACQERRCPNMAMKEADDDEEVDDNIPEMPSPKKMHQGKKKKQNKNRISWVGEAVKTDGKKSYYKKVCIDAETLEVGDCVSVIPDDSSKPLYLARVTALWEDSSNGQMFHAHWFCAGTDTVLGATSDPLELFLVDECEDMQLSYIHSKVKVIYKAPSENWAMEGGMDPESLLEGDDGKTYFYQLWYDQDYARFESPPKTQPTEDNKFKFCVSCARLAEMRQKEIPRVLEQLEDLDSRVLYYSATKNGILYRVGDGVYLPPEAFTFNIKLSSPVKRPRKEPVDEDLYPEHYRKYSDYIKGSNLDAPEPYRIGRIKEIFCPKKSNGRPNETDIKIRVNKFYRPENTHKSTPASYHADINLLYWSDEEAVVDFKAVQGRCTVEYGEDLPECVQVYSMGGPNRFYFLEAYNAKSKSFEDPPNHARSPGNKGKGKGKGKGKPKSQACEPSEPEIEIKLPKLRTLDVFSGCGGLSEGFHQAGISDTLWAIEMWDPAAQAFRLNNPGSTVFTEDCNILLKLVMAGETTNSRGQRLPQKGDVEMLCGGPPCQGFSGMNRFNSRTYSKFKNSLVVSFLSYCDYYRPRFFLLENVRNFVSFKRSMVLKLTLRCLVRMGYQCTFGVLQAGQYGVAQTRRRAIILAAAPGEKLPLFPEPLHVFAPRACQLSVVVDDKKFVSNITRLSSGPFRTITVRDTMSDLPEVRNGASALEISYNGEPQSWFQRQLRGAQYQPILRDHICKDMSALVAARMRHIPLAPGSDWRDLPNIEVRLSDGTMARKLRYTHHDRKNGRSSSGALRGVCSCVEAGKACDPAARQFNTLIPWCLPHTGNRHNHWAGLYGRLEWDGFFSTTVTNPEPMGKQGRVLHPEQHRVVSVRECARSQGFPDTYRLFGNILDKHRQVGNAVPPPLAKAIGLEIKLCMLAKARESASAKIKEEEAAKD
Assay [6] addresses 26S proteasome non-ATPase regulatory subunit 14 (Homo sapiens, UniProt O00487). Kind of assay: inhibition of proteasome subunit RPN11 – biochemical, fluorescence polarization, uHTS hits, confirmation (AID 602368). The class given is functional. On the technique in general: Polarisation of emitted light reports the rotation of a fluorescent probe.
The target in assay [7] is 72 kDa type IV collagenase (Homo sapiens, UniProt P08253). Put plainly: Dose Response validation of uHTS RPN11 inhibitor hits using a MMP-2 Fluorescence assay. The class given is functional.
Sequence of 72 kDa type IV collagenase (P08253 whole entry): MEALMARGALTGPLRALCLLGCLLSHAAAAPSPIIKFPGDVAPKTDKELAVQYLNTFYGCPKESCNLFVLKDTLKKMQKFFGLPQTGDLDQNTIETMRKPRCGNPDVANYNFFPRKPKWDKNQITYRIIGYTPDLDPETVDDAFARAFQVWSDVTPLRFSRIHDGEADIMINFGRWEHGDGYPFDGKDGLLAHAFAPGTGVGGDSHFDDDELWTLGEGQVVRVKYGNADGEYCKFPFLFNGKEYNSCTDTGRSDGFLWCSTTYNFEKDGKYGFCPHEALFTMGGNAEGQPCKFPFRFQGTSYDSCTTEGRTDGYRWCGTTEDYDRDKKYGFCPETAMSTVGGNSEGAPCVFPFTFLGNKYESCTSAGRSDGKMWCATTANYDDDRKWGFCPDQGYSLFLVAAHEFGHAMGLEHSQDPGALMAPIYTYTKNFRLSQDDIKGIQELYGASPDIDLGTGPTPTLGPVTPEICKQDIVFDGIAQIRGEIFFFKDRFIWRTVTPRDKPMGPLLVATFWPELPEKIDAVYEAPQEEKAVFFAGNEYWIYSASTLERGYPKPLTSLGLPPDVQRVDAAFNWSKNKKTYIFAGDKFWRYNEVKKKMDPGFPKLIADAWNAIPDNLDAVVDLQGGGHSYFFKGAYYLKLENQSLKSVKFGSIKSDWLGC
Assay [8] deals with Prothrombin (Bos taurus, UniProt P00735). Kind of assay: thrombin protease inhibitors – biochemical, fluorescence polarization, uHTS hits, dose response (AID 602369). In kind it is functional.
Assay [9] addresses T1, Histone-lysine N-methyltransferase NSD2 (Homo sapiens, UniProt O96028).
T1 sequence (O96028 whole entry): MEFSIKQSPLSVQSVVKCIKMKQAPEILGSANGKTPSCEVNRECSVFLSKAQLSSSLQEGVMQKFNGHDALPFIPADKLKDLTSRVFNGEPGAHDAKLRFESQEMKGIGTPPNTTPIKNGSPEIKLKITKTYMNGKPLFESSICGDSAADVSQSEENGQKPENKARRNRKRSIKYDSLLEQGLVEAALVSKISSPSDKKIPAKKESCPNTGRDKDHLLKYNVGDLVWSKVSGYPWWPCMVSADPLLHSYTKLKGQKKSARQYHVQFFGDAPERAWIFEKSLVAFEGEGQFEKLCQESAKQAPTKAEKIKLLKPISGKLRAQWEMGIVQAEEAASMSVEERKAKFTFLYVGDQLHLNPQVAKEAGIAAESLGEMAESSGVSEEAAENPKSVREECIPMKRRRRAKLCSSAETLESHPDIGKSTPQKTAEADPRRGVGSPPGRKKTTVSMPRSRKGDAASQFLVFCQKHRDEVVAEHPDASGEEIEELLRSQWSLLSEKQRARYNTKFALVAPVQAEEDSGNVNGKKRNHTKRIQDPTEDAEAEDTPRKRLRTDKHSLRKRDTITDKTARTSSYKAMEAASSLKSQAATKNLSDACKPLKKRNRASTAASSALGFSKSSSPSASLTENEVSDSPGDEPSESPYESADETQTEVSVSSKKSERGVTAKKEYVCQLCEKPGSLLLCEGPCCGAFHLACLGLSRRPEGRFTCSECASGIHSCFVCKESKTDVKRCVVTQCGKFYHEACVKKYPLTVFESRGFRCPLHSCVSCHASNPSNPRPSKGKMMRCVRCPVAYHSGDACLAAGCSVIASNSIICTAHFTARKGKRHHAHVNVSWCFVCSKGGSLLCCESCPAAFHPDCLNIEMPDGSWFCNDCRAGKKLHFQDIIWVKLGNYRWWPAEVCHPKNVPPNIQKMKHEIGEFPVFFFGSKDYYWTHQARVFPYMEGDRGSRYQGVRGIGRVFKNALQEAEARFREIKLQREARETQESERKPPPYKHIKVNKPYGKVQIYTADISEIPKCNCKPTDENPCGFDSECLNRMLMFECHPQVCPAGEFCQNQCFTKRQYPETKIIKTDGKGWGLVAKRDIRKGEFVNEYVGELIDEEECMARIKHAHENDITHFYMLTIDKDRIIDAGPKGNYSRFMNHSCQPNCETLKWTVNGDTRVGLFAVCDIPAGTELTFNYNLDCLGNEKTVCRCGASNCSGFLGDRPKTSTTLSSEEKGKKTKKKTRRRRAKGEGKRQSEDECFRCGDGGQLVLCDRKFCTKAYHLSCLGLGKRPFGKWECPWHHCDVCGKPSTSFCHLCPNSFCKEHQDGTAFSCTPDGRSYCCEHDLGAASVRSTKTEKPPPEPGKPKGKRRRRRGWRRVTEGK
In kind it is biochemical.

Assay [10] deals with Aurora kinase A (Homo sapiens, UniProt O14965). In kind it is functional.
Sequence of Aurora kinase A (O14965 whole entry): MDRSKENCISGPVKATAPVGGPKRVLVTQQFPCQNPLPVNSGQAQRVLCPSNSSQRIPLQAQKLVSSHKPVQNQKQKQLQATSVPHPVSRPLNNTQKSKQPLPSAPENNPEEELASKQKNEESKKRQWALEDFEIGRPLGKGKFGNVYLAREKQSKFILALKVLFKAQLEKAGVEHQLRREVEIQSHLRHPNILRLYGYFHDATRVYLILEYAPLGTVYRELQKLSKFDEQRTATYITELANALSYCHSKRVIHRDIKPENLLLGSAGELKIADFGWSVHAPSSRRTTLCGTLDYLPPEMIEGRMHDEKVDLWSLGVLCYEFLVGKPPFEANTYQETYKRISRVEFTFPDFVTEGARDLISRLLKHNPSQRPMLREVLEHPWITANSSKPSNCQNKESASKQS
The target of assay [11] is Aurora kinase B (Homo sapiens, UniProt Q96GD4). The class given is functional.
Sequence of Aurora kinase B (Q96GD4 whole entry, the tested form may be a part): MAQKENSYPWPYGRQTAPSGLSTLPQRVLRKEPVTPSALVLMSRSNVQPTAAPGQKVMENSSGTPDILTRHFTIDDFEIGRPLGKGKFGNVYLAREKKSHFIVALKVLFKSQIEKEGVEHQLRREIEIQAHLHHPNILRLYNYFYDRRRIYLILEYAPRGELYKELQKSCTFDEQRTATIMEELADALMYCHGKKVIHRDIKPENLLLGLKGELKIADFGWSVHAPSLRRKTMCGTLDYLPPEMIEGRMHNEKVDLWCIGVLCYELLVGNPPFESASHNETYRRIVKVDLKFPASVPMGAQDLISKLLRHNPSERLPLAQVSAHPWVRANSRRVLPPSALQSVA
In assay [12] the target is T2, Carboxy-terminal domain RNA polymerase II polypeptide A small phosphatase 1 (Homo sapiens, UniProt Q9GZU7).
T2 sequence (Q9GZU7 whole entry): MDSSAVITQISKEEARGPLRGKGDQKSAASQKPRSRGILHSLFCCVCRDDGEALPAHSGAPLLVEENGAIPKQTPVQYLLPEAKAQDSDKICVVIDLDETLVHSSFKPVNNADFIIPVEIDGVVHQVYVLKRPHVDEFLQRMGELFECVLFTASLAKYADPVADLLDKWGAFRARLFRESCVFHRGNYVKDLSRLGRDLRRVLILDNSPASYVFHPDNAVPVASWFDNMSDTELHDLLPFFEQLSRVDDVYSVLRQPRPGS
Kind of assay: CTDSP1 inhibitors, concentration-response, biochemical, absorbance readout, ultra-high-throughput screen actives (AID 540297). The class given is functional.

The target in assay [13] is T3, Melanocortin receptor 4 (Homo sapiens, UniProt P32245). In kind it is functional, cell-based.
T3 sequence (P32245 whole entry): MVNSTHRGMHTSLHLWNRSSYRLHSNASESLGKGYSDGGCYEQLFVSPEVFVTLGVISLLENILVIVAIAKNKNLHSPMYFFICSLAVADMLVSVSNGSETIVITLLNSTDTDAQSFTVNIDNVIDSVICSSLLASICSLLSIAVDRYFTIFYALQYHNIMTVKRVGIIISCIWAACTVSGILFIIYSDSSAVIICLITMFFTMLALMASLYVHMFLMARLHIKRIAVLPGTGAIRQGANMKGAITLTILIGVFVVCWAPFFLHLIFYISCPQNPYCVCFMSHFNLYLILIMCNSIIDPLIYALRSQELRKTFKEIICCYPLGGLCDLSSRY
Assay [14] deals with Streptococcus sp. 'group A'. Put plainly: Streptococcus pyogenes SK(-)GAS viability under kanamycin – luminescence, BacTiterGlo, confirmation, counter-screen for streptokinase expression inhibitor project, dose response (AID 1900). In kind it is functional, organism-based. As to conditions: Streptococcus sp. 'group A'. For orientation: Counterscreens check selectivity or assay interference.

Assay [15] concerns the target T4, Streptokinase A (Streptococcus pyogenes serotype M1, UniProt P10520).
T4 sequence (P10520 whole entry): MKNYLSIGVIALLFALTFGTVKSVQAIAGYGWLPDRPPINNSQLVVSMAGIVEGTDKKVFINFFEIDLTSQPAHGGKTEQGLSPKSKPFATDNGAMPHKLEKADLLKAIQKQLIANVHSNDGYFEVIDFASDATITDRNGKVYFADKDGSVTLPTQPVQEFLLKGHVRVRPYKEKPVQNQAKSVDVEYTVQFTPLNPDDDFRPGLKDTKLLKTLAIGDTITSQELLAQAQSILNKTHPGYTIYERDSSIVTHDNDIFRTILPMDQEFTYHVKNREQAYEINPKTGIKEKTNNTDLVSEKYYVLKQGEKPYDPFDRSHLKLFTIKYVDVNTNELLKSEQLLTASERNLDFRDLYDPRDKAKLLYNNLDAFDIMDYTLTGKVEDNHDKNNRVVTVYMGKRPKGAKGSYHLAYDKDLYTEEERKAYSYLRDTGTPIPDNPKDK
Kind of assay: viability-normalized secreted streptokinase activity reduction – plasminogen activation absorbance, OD405, dose response (AID 1914).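 Also: secreted streptokinase activity via plasminogen activation per viability signal from cell pellet.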 In kind it is functional, Streptococcus pyogenes M1 GAS.

For assay [16], the system named is Streptococcus. Put plainly: GAS UMAA2166 growth inhibition – luminescence, BacTiterGlo, counter-screen for streptokinase expression inhibitor project, dose response (AID 1915).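 Also: potency for reduction of bacterial viability or growth.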 As to conditions: Streptococcus. In kind it is functional, organism-based.
Assay [17] concerns the target T3, Melanocortin receptor 4. Put plainly: inhibitors of MC4R cAMP signaling – cell-based, TR-FRET, biased antagonists, dose response (AID 602298).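 Also: antagonist potency against agonist-stimulated cAMP production.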 The class given is functional.
The nature of assay [18]: cAMP pathway inhibition in counterscreen cell line – TR-FRET cAMP detection, counter-screen for MC4R biased antagonist project, dose response (AID 602305).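 Also: U2OS cells stimulated with forskolin near its EC80 as the cAMP inducer; potency is for inhibition of forskolin-stimulated cAMP signaling.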 In kind it is functional, cell-based.
In assay [19] the target is Low molecular weight phosphotyrosine protein phosphatase (Homo sapiens, UniProt P24666). In kind it is functional. As to conditions: read-out: IC50_Mean.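 Also: Dose-response confirmation assay measuring inhibition of LMPTP enzyme activity by fluorescence intensity read-out.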
Sequence of Low molecular weight phosphotyrosine protein phosphatase (P24666 whole entry): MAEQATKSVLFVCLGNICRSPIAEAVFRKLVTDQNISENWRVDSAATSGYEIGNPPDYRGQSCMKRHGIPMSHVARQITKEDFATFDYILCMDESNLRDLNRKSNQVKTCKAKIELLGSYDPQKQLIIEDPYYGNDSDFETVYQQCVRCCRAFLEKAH
The test system of assay [20] is Escherichia coli. Put plainly: microbe, parasite or virus in culture.
Assay [21] deals with T5, Ubiquitin-conjugating enzyme E2 N (Homo sapiens, UniProt P61088).
T5 sequence (P61088 whole entry): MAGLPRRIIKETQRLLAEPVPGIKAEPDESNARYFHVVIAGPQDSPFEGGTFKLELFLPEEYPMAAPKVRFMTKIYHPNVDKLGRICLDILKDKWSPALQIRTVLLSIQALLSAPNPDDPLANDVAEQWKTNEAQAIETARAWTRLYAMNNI
In kind it is functional.

In assay [22] the target is T6, Apoptotic protease-activating factor 1 (Homo sapiens, UniProt O14727).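 Also: caspase-3 cleavage of fluorogenic Rh110 DEVD substrate downstream of apoptosome activation.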
T6 sequence (O14727 whole entry): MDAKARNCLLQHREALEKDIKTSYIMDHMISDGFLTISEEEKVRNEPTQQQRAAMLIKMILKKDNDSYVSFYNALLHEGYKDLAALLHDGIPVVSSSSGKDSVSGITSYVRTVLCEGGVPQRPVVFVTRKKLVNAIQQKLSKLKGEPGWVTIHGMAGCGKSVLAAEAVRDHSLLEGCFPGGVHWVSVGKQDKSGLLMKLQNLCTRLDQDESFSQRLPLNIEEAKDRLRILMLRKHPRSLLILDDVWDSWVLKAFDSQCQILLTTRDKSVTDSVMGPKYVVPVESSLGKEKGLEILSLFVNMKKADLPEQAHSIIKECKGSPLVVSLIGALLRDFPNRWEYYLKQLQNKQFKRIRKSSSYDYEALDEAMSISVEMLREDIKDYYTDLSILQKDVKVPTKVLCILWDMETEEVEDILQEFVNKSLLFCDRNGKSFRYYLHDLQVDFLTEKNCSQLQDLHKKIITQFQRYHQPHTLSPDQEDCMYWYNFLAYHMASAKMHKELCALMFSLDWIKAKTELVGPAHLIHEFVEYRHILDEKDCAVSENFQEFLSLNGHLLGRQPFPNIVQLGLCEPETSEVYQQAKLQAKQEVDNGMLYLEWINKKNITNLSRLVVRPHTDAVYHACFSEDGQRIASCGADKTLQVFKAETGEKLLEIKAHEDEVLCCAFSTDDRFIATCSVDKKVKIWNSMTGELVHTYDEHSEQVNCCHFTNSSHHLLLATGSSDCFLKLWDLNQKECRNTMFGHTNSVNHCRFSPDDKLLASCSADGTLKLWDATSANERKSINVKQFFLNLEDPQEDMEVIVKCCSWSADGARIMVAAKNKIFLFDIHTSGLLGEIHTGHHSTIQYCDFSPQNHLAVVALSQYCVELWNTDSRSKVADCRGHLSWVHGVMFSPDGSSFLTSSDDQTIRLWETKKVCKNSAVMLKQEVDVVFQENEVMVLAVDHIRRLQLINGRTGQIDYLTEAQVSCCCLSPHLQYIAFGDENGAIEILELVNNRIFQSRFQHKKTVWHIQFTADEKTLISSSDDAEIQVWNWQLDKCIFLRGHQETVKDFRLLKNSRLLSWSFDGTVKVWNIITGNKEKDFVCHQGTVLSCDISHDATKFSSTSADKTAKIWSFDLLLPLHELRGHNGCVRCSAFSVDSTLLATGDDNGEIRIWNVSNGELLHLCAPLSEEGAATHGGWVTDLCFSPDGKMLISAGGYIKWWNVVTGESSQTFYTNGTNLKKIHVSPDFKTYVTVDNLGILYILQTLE
Kind of assay: SAR analysis of small molecule Activators of Apaf-1 in a Fluorescent assay. The class given is functional. As to conditions: read-out: EC50_Mean.

The source made the active and inactive calls. Bounds are passed on as bounds.

Sequence of 26S proteasome non-ATPase regulatory subunit 14 (O00487 whole entry): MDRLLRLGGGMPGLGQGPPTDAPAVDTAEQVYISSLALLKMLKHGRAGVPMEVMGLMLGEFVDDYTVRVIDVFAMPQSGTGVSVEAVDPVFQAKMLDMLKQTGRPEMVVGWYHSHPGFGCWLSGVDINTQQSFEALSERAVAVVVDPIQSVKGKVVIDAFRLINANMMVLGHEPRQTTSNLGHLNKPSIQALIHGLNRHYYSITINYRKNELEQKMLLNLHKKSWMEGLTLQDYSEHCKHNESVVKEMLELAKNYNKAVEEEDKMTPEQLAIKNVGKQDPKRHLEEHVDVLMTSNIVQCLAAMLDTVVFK
Sequence of Induced myeloid leukemia cell differentiation protein Mcl-1 (Q07820 whole entry): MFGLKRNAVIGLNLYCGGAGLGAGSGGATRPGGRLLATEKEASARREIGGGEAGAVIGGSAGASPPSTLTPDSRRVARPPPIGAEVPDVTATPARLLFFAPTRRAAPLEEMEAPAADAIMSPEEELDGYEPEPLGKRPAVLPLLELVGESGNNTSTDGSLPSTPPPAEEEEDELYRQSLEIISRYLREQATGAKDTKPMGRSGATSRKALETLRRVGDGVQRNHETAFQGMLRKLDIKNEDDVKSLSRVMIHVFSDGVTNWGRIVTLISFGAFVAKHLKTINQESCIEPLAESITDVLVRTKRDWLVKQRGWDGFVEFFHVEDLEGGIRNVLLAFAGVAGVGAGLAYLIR

In the case of `O=C1NN(c2ccc(Cl)cc2)C(=O)/C1=C\c1ccc(-c2cccc(C(=O)O)c2)o1`, the IC50 was 27.1 µM (active) in [1]; 3.21 µM (active) in assay [2]; 50 µM (inactive) in [3]; 77.3 µM (active) in [4]; 7.39 µM (active) in assay [5]; 10.9 µM (active) in [6]. The IC50 is 56.7 µM (active) in assay [7] and 19.8 µM (active) in assay [8]. In addition, the AC50 (in general, the midpoint of the concentration-response curve, whichever way the signal moves) in [9] was > 20 µM (inactive).
As for `COCCOC1CCC(n2nc(-c3ccc(Nc4nc5cc(Cl)cc(C)c5o4)c(F)c3)c3c(N)ncnc32)CC1` (configuration not stated), the Ki (as a rule, the dissociation constant of the complex between target and ligand, obtained from inhibition or displacement) was 0.126 µM (active) in assay [10] and 0.00794 µM (active) in [11].
`Cc1ccc(-n2nnc3c(=O)n(CC(=O)NCc4ccccc4)cnc32)cc1`: the IC50 in assay [12] was 5.33 µM (active); in assay [6], 24.8 µM (active); in assay [7], 12.7 µM (active); in assay [8], > 100 µM (inactive).
In the case of `O=C(CSc1ccccc1)Nc1nnc(/C=C/c2ccccc2)s1`, the EC50 in assay [13] was > 89.2 µM (inactive).
On to `COc1ccc(-c2oc3ccc(N4CCOCC4)cc3c2C#CC2(O)CCCCC2)cc1`, for which the EC50 was 3.68 µM (active) in assay [14], > 150 µM (not active) in [15] and 8.25 µM (active) in [16]. The IC50 in assay [17] and in assay [18] was > 64.6 µM (inactive) each time.
For the molecule `CCn1cc(C(=O)O)c(=O)c2cc(F)c(N3CCN(C(=S)NC(=O)c4ccccc4C)CC3)cc21`, in [19], the IC50 was 7.19 µM (active). Also, in assay [20], the AC50 was 8.2 µM (active).
In the case of `CC(C)[C@H](CN1CCC[C@H]1CN1C(N)=NC[C@H]1C(C)C)N1C[C@@H](Cc2ccccc2)N(CCCC2CCCC2)C1=N`, the IC50 was > 20 µM (inactive) in assay [21], 17.7 µM (inactive) in assay [17] and > 64.5 µM (inactive) in assay [18].
Consider `CC(CNc1ccccc1Cl)C(=O)O` (configuration not stated), for which the EC50 in assay [22] is > 100 µM (inactive).
